{"source": "patent US20160081935A1", "about": "“DOSAGE FORMS FOR ORAL ADMINISTRATION OF ACTIVE SUBSTANCES” (GIULIANI S.P.A., priority 2013, published 2016)", "key": {"[1]": {"assay": "Hydrophilicity-lipophilicity index for the active ingredient in single dose (Ip.a.), calculation method", "details": "for Ip.a.: scale 0-20", "source_text": "Where Ip.a. means the hydrophilicity-lipophilicity index for the active ingredient in single dose.\nCoefficient X is equal to the solubility of the active ingredient S (mg/liter) divided by the amount of active ingredient expressed in mg per single dose (mg/dose).\nA substance that is miscible in any ratio with water has an infinite water solubility, in such case considering a substance as the solute and the other as the solvent may be meaningless. Therefore, in this condition use of the above equation, which presents a horizontal asymptote, is not necessarily required. Instead, the value 20 on the scale of hydrophilicity lipophilicity is arbitrarily assigned, while the value 0, or better tending to 0, is attributed to substances considered insoluble in water.\nIn the case of molecules considered insoluble, the value on the solubility index scale will tend to zero, and therefore, the scale can be considered for convenience between the values 0-20."}, "[2]": {"details": "cited from earlier work"}, "[3]": {"assay": "Solubility of active ingredients in water", "type": "physicochemical", "details": "for Solubility: 20 °C", "source_text": "The solubility (S) of a solute is the maximum amount of solute that dissolves in a fixed amount of a particular solvent at a specified temperature."}, "[4]": {"details": "mg per 1000 ml of water at 20° C.-25° C., 0.00001 used for practically insoluble substances"}}, "note": "Like-named read-outs stand apart in the source and are kept apart here."}
{"molecule": "CSCC[C@H](N)C(=O)O", "note": "[L-Methionine]", "values": [{"measurement": "X = (mg/l)/(mg/dose)", "setting": "[1]; dose 300 mg", "value": "160 (mg/l)/(mg/dose)"}, {"measurement": "Ip.a.", "setting": "[1]; dose 300 mg", "value": 20}, {"measurement": "Solubility", "setting": "[2]; at 293 K", "value": 48, "unit": "g/l at 293 K"}, {"measurement": "S", "setting": "[2]; [4]", "value": 48000, "unit": "mg/L"}]}
{"molecule": "CS(C)(=O)=O", "note": "[Dimethyl sulfone]", "values": [{"measurement": "X = (mg/l)/(mg/dose)", "setting": "[1]; dose 500 mg", "value": "300 (mg/l)/(mg/dose)"}, {"measurement": "Ip.a.", "setting": "[1]; dose 500 mg", "value": 20}, {"measurement": "Solubility", "setting": "[2]; at 25° C.", "value": 150, "unit": "g/L at"}, {"measurement": "S", "setting": "[2]; [4]", "value": 150000, "unit": "mg/L"}]}
{"molecule": "Vitamin E", "values": [{"measurement": "X = (mg/l)/(mg/dose)", "setting": "[1]; dose 10 mg", "value": "0.000001 (mg/l)/(mg/dose)"}, {"measurement": "Ip.a.", "setting": "[1]; dose 10 mg", "value": 0.00000}, {"measurement": "Solubility", "setting": "[2]; in water, in words", "value": "practically insoluble in water"}, {"measurement": "S", "setting": "[2]; [4]", "value": 0.00001, "unit": "mg/L"}]}
{"molecule": "Cc1cc2nc3c(=O)[nH]c(=O)nc-3n(C[C@H](O)[C@H](O)[C@H](O)CO)c2cc1C", "note": "[Riboflavin (form B), Riboflavin]", "values": [{"measurement": "Solubility", "setting": "[3]; riboflavin form B, in water", "value": 80, "unit": "µg/mL"}, {"measurement": "S", "setting": "[3]; riboflavin form B", "value": 80, "unit": "mg/L"}]}
{"molecule": "N[C@@H](Cc1ccc(O)cc1)C(=O)O", "note": "[tyrosine]", "values": [{"measurement": "X = (mg/l)/(mg/dose)", "setting": "[1]; dose 45.3 mg", "value": "10 (mg/l)/(mg/dose)"}, {"measurement": "Ip.a.", "setting": "[1]; dose 45.3 mg", "value": 20}, {"measurement": "X = (mg/l)/(mg/dose)", "setting": "[1]; dose 453.0 mg", "value": "1 (mg/l)/(mg/dose)"}, {"measurement": "Ip.a.", "setting": "[1]; dose 453.0 mg", "value": 19.62}, {"measurement": "X = (mg/l)/(mg/dose)", "setting": "[1]; dose 498.3 mg", "value": "0.9091 (mg/l)/(mg/dose)"}, {"measurement": "Ip.a.", "setting": "[1]; dose 498.3 mg", "value": 16.85}, {"measurement": "X = (mg/l)/(mg/dose)", "setting": "[1]; dose 543.6 mg", "value": "0.8333 (mg/l)/(mg/dose)"}, {"measurement": "Ip.a.", "setting": "[1]; dose 543.6 mg", "value": 5.858}, {"measurement": "X = (mg/l)/(mg/dose)", "setting": "[1]; dose 588.9 mg", "value": "0.7692 (mg/l)/(mg/dose)"}, {"measurement": "Ip.a.", "setting": "[1]; dose 588.9 mg", "value": 0.7258}, {"measurement": "X = (mg/l)/(mg/dose)", "setting": "[1]; dose 634.2 mg", "value": "0.7143 (mg/l)/(mg/dose)"}, {"measurement": "Ip.a.", "setting": "[1]; dose 634.2 mg", "value": 0.08114}, {"measurement": "S", "setting": "[2]; 25° C.", "value": 453, "unit": "mg/L"}]}
{"molecule": "Cc1cc2nc3c(=O)[nH]c(=O)nc-3n(C[C@H](O)[C@H](O)[C@H](O)CO)c2cc1C", "note": "[Riboflavin (form A), Riboflavin]", "values": [{"measurement": "Solubility", "setting": "[2]; volume of water that dissolves 1 g, varies with crystal form", "value": 1, "unit": "g/3-15 L **"}]}
{"molecule": "Cc1cc2nc3c(=O)[nH]c(=O)nc-3n(C[C@H](O)[C@H](O)[C@H](O)CO)c2cc1C", "note": "[Riboflavin]", "values": [{"measurement": "Solubility", "setting": "[3]; deduced experimentally", "value": "~80", "unit": "µg/mL"}, {"measurement": "Solubility", "setting": "[2]; 1 g in this volume, depending on the crystalline form, Merck Index", "value": "3 to 15", "unit": "L"}]}
{"molecule": "Vitamin A", "values": [{"measurement": "X = (mg/l)/(mg/dose)", "setting": "[1]; dose 0.1 mg", "value": "0.0001 (mg/l)/(mg/dose)"}, {"measurement": "Ip.a.", "setting": "[1]; dose 0.1 mg", "value": 0.00000}, {"measurement": "Solubility", "setting": "[2]; in water, in words", "value": "practically insoluble in water"}, {"measurement": "S", "setting": "[2]; [4]", "value": 0.00001, "unit": "mg/L"}]}
{"molecule": "COC1=C(OC)C(=O)C(C/C=C(\\C)CC/C=C(\\C)CC/C=C(\\C)CC/C=C(\\C)CC/C=C(\\C)CC/C=C(\\C)CC/C=C(\\C)CC/C=C(\\C)CC/C=C(\\C)CCC=C(C)C)=C(C)C1=O", "note": "[Ubidecarenone]", "values": [{"measurement": "X = (mg/l)/(mg/dose)", "setting": "[1]; dose 10 mg", "value": "0.000001 (mg/l)/(mg/dose)"}, {"measurement": "Ip.a.", "setting": "[1]; dose 10 mg", "value": 0.00000}, {"measurement": "Solubility", "setting": "[2]; in water, in words", "value": "practically insoluble in water"}, {"measurement": "S", "setting": "[2]; [4]", "value": 0.00001, "unit": "mg/L"}]}
{"molecule": "Oc1ccc(C=Cc2cc(O)cc(O)c2)cc1", "note": "[resveratrol]", "values": [{"measurement": "Solubility", "setting": "[2]; in water", "value": 0.003, "unit": "g in 100 ml"}]}
